Results published in patent US11104663B2 (priority 2017, dated 2021).
Read-outs that look alike come from different tables or passages of the source.

Tests used:
[1] = Specific surface area analysis (BET); conditions: for SSA: BET method
[2] = assay type: physicochemical; conditions: for d50: median particle size; for d10 / d90: particle size; for d10: 10th percentile; for d90: 90th percentile
Description: The suspensions were sonicated in a bath or with a sonic probe prior to analysis to deagglomerate and form a homogeneous suspension. Particle size was analyzed by both light obscuration and laser diffraction methods.

in vivo = conditions: male, Sprague Dawley (CD), rat, lung
[3] = rat, i.v. 5 mg/kg
[4] = Example 1 processed vs raw material

O=C(O)c1cn(C2CC2)c2cc(N3CCNCC3)c(F)cc2c1=O [Ciprofloxacin Raw material, 1-cyclopropyl-6-fluoro-4-oxo-7-(piperazin-1-yl)-1,4-dihydroquinoline-3-carboxylic acid, reference compound] gave an SSA [1] of 11.8 m^2/g, a d50 [2] of 14.8 μm and a d10 [2] of 1.44 μm. For the same compound, the d90 [2] was 244 μm.
For Cl.O=C(O)c1cn(C2CC2)c2cc(N3CCNCC3)c(F)cc2c1=O [Ciprofloxacin hydrochloride Raw material, 1-cyclopropyl-6-fluoro-4-oxo-7-(piperazin-1-yl)-1,4-dihydroquinoline-3-carboxylic acid hydrochloride salt, reference compound], the SSA ([1]; hydrochloride salt) was 7.68 m^2/g, the d50 ([2]; hydrochloride salt) was 22.7 μm and the d10 ([2]; hydrochloride salt) was 6.05 μm. The d90 ([2]; hydrochloride salt) was 56.0 μm.
For O=C(O)c1cn(C2CC2)c2cc(N3CCNCC3)c(F)cc2c1=O [Ex. 2 ciprofloxacin, 1-cyclopropyl-6-fluoro-4-oxo-7-(piperazin-1-yl)-1,4-dihydroquinoline-3-carboxylic acid], the concentration at 0.5 h (in vivo; inhaled, 3 mg/kg) was 153000 ng/g, the concentration at 6 h (in vivo; inhaled, 3 mg/kg) was 48400 ng/g and the concentration at 12 h (in vivo; inhaled, 3 mg/kg) was 12800 ng/g. For the same compound, the concentration at 24 h (in vivo; inhaled, 3 mg/kg) was 607 ng/g.
For Cl.O=C(O)c1cn(C2CC2)c2cc(N3CCNCC3)c(F)cc2c1=O [Example 1 processed, 1-cyclopropyl-6-fluoro-4-oxo-7-(piperazin-1-yl)-1,4-dihydroquinoline-3-carboxylic acid hydrochloride salt], the SSA ([1]; hydrochloride salt) was 19.42 m^2/g, the “% Change of SSA” value [1, 4] was “+153%” and the “% Change of d10” value [2, 4] was −90%. For the same compound, the “% Change of d50” value [2, 4] was −94%, the “% Change of d90” value [2, 4] was −94% and the d50 ([2]; hydrochloride salt) was 1.37 μm. The d10 ([2]; hydrochloride salt) was 0.61 μm and the d90 ([2]; hydrochloride salt) was 3.64 μm.
O=C(O)c1cn(C2CC2)c2cc(N3CCNCC3)c(F)cc2c1=O [Example 2 processed Batch 1, 1-cyclopropyl-6-fluoro-4-oxo-7-(piperazin-1-yl)-1,4-dihydroquinoline-3-carboxylic acid] gave an SSA [1] of 7.68 m^2/g, a d50 [2] of 4.63 μm and a d10 [2] of 1.62 μm. It also gave a d90 [2] of 9.32 μm.
For O=C(O)c1cn(C2CC2)c2cc(N3CCNCC3)c(F)cc2c1=O [Example 2 processed Batch 2, 1-cyclopropyl-6-fluoro-4-oxo-7-(piperazin-1-yl)-1,4-dihydroquinoline-3-carboxylic acid], the SSA [1] was 14.3 m^2/g, the d50 [2] was 5.57 μm and the d10 [2] was 1.79 μm. The d90 [2] was 13.3 μm.
Compound O=C(O)c1cn(C2CC2)c2cc(N3CCNCC3)c(F)cc2c1=O [Example 2 processed Batch 3, 1-cyclopropyl-6-fluoro-4-oxo-7-(piperazin-1-yl)-1,4-dihydroquinoline-3-carboxylic acid] has an SSA [1] of 12.9 m^2/g, a d50 [2] of 3.26 μm and a d10 [2] of 1.19 μm. For the same compound, the d90 [2] was 6.65 μm.
With O=C(O)c1cn(C2CC2)c2cc(N3CCNCC3)c(F)cc2c1=O [ciprofloxacin, reference compound] the concentration at 0.5 h (in vivo; iv, 5 mg/kg) was 843 ng/g, the concentration at 6 h (in vivo; iv, 5 mg/kg) was 113 ng/g and the Lung concentration ([3]; 12 hours) was “BQL*”. The Lung concentration ([3]; 24 hours) was “BQL”.
